Measurements as given in article PMC4820889 (Journal of Biomedical Research, 2015).

Molecular target: ABCC1 (MRP1) (Homo sapiens, UniProt P33527)
Sequence (P33527 whole entry): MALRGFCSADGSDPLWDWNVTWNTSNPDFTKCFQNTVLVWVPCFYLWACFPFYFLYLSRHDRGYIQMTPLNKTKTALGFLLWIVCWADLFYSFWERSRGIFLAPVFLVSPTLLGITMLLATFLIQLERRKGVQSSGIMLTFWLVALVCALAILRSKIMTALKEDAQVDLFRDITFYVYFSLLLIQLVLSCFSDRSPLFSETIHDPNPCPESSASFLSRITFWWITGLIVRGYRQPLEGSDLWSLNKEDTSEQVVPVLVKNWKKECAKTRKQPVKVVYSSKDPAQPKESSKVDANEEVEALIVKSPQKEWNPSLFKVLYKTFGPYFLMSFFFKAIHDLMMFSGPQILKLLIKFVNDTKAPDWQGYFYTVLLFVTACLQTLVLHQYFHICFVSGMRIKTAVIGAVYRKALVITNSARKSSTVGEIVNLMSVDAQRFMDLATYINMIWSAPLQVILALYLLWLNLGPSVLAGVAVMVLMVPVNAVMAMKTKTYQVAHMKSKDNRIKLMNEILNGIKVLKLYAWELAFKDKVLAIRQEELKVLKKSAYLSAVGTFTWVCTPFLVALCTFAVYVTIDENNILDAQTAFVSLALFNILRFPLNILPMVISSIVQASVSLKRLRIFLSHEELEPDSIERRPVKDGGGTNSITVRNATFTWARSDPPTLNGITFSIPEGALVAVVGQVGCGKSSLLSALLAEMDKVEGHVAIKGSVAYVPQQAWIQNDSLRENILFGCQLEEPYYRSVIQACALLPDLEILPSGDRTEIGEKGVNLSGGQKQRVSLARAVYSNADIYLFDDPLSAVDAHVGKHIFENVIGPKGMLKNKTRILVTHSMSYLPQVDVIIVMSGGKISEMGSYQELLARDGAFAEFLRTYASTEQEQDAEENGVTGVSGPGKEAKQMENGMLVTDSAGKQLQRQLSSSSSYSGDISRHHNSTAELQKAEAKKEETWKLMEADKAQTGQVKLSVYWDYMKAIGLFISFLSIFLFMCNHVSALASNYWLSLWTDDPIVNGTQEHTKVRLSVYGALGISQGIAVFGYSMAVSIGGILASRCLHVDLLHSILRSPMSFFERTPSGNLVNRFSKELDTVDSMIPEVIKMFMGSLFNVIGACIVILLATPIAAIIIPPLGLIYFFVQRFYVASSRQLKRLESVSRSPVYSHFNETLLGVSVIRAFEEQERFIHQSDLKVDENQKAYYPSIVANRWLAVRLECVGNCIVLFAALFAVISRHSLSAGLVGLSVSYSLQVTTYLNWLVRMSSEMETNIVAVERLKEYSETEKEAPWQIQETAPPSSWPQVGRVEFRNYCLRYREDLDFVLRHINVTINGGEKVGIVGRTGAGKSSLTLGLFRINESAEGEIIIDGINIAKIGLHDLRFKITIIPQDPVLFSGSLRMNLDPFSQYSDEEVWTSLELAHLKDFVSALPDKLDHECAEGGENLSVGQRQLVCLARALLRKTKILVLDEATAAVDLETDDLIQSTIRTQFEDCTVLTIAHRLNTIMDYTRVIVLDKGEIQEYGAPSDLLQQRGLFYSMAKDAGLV

`CSc1ccc(/C=C2/C(C)=C(CC(=O)O)c3cc(F)ccc32)cc1` [SS, sulindac sulfide] gave an IC50 of 5.6 µM.
